Each structure is given as a SMILES string. Values after ≈ are worked out from the molar mass of the structure shown. Values joined by “and” are separate entries in the source; they are usually repeats but may differ in a detail not shown here. Equal entries are not always repeated. Where two headings read alike, the source gives them in different places. Marks after values point to notes of the source that are not given here.

One series can be described thus: physchem. Particulars: pH 7.4, aqueous buffer, kinetic from dmso stock. The procedure:
Samples were incubated at room temperature for 6 h and vacuum-filtered using Tecan Te-Vac to remove any precipitates. The concentration of the compound in the filtrate was measured via UV absorbance (λ: 250–498 nm). […] All compounds were tested in duplicates. The kinetic solubility (µg/mL) of compounds was calculated using the µSOL Evolution software.

Another series is described as follows: in vitro. The conditions noted are these: PAMPA, pH 7.4. The protocol: The test samples (0.05 mM test article in pH 7.4 buffer with 0.5% DMSO) were added in the donor compartment and were stirred using the Gutbox technology (Pion Inc.) to reduce the aqueous boundary layer. The test article concentrations in the donor and acceptor compartments were measured using a UV plate reader (Nano Quant, Infinite 200 PRO, Tecan Inc., Männedorf, Switzerland).
A general note: PAMPA measures passive passage across an artificial lipid membrane.

Series [1] can be described thus: in vivo. The conditions noted are these: male, C57BL/6, mouse, in vivo. The protocol:
The in-life study (Animal Study Protocol Number: NIH ORS-51) was conducted at the NIH Animal Facility by the Division of Veterinary Resources (DVR, Bethesda, MD). In this study, 25–35 g male C57BL/6 mice (Charles River Laboratories, Frederick, MD) were used. For the IV groups, 66 mice (33 mice per dosing group, 3 mice per timepoint) were used for a single bolus IV dose of 3 or 10 mg/kg of PDN via tail vein injection. […] The IV and PO doses were selected to obtain a complete concentration profile in plasma and tissues, based on a preliminary study. Animals were not fasted in this study. […] All dosing solutions were freshly prepared on the day of dosing. At designated time points, blood samples were collected, and mice were euthanized with CO2 in accordance with NIH ARAC Guidelines after blood collection. The death was ensured by cervical dislocation or transthoracic puncture. Lung, liver, adipose, brain, heart, small intestine, kidney, skeletal muscle, and spleen samples were obtained from mice. […] Tissue samples were rinsed with cold saline, dried on filtrate paper, weighed, and snap frozen by placing into dry ice after collection. All samples were stored at −80°C until the analysis. All blood samples were collected in K2EDTA tubes and centrifuged at 3000 g for 10 min at 4°C to obtain plasma. Plasma samples were transferred to tubes preloaded with NaF (final concentration at 5 mM in 200 µL plasma) and stored at −80°C until analysis.
(§1) For fat tissue, an additional 3-fold volume of acetonitrile was added to the water homogenate and was vortexed in a shaker for another 30 min.
(§2) A 10 μ aliquot of samples, blank controls (blank plasma or tissue homogenates), quality controls (QC), and standards were added into 200 μ acetonitrile solution with 100 ng/mL tolbutamide (internal standard, IS). All samples were then thoroughly shaken for 5 min to precipitate proteins. The samples were centrifuged at 3000 rpm and 4°C for 30 min. The supernatant was injected for UPLC-MS/MS analysis.
(§3) The mobile phase consisted of 0.1% formic acid in water (A) and 0.1% formic acid in acetonitrile (B), the flow rate was 600 μL/min. […] All analyses were carried out using a Waters Acquity I-Class UPLC interfaced with a Waters Xevo TQ-S mass spectrometer. The mass spectrometer multiple reaction monitoring (MRM) experiment was operated with an ESI source at negative mode with spray voltage of 1 kV, and temperature of 600°C. Both Q1 and Q3 were set at unit resolution. […] The correlation coefficients of the calibration curves were all greater than 0.99. […] The linear range, precision and accuracy of QCs in various tissues and plasma are shown in Supplementary Table S1 and Supplementary Table S2.
(§4) The area under the concentration vs. time curve (AUC) was calculated using the linear trapezoidal method. The terminal rate constant (λ) was obtained from the slope of at least three data points of the apparent terminal phase of the log linear concentration vs. time curve. AUC0–∞ was estimated as the sum of the AUC0–t (where t is the time of the last measurable concentration) and Ct/λ. […] Bioavailability (F) was calculated using ratios of dose-normalized AUC of PO and IV administration.

Series [2] can be described thus: in vivo. Particulars: hamster, in vivo. The protocol:
For the IV group, a single bolus IV dose of 3 mg/kg of PDN was administered to 24 hamsters (3 hamsters per time point). For the PO group, a dose of 30 mg/kg of PDN was administered via oral gavage to 21 hamsters (3 hamsters per time point). The formulation used for both IV and PO was 20% HP-β-CD in water (0.6 mg/mL PDN for IV and 3 mg/mL for PO). All dosing solutions were freshly prepared on the day of dosing. […] After collection, tissues were weighed and frozen. All blood samples were centrifuged at 4°C to obtain plasma. Plasma samples were transferred to tubes preloaded with NaF (final concentration at 5 mM in 200 µL plasma) and stored at −80°C until analysis.
as §1, §2, §3, §4

Series [3] is described as follows: PBPK model (GastroPlus): simulation and model parameters incl. permeability surface product and scaled metabolic kinetics, mouse. The conditions noted are these: conversion to Others. The protocol:
(§5) CL in vitro,app expressed as mL/min/mg microsomes were scaled to the predicted CLintrinsic using scaling factor (SF), microsome level and liver weight as indicated below: CLintrinsic=CLin vitro,app×SF×liver weight×microsome level per gram liver
(§6) All modeling and simulation were carried out using GastroPlus version 9.5 (Simulations Plus Inc., CA). Physiochemical parameters including blood-to-plasma ratio (Rbp), pKa, and logP were predicted by ADMET predictor (Simulations Plus Inc., CA). Physiologies of all species, including organ weights, volumes, tissue compositions, and blood perfusion rates, were generated by the program’s internal module. Tissue intracellular unbound fractions were generated by GastroPlus based on predicted or experimentally determined physiochemical and chemical-biological parameters including pKa, logP, plasma unbound fractions (Fup), Rbp, solubility, and PAMPA permeability. The PBPK model structure is illustrated in Figure 2 and its parameters are summarized in Supplementary Tables S3–6. The default absorption and dissolution model was applied and effective intestine permeability was predicted by a built-in correlation from the experimental PAMPA permeability result. Parameters including partition coefficients in tissue (Kp), CLintrinsic, and permeability surface area product (PStc) were estimated by fitting the model to experimental data using the optimization module in GastroPlus with objective function weights at 1/(y + ŷ)^2, where y is the observed value and ŷ is the predicted value.
Model parameter estimation of all plasma-tissue partition coefficients (Kp) was performed simultaneously using both the IV and PO datasets. […] The experimentally determined pharmacokinetic profiles were compared with the model simulations.

Series [4] can be described thus: PBPK model (GastroPlus): simulation and model parameters incl. permeability surface product and scaled metabolic kinetics, hamster. The conditions noted are these: conversion to Others. The protocol:
as §5, §6
Experimental measurements of hamster plasma pharmacokinetics and lung concentrations were used in the model validation.

Series [5] can be described thus: PBPK model (GastroPlus): simulation and model parameters incl. permeability surface product and scaled metabolic kinetics, human. The conditions noted are these: conversion to Others.
The conditions of series [6]: mouse, pH 7.4.
Method: (§7) The incubation was carried out at 37°C for 15, 30, and 60 min. The reaction in plasma or liver microsomes was quenched by adding 200 μL of cold acetonitrile (containing 100 ng/mL tolbutamide as internal standard).
(§8) The mc was the microsome concentration used in the incubation (0.5 mg/mL). The substrate disappearance half-life (t1/2) was estimated by regression analysis of the semi-logarithmic (ln Conc vs. time) plots. […] The Vmax, in vitro,app, PDN-total and Km for PDN depletion in liver microsomes were estimated by the Michaelis-Menten model using GraphPad Prism version 8.
For series [7] the following is noted: hamster, pH 7.4.
Method: as §7, §8
The conditions of series [8]: human, pH 7.4.
Method: as §7, §8
For series [9] the following is noted: cited from earlier work.
The conditions of series [10]: rat, in vivo, cited from earlier work.
For series [11] the following is noted: dog, in vivo; cited from earlier work.
The conditions of series [12]: human, in vivo, po, cited from earlier work.
The conditions of series [13]: cited from earlier work. The source holds these as a separate data set.
For series [14] the following is noted: human; cited from earlier work.
For a further series, the system named is UGT enzymes. Particulars: cited from earlier work.
The conditions of series [15]: rats, acute toxicity test; ref Andrews et al., 1982; cited from earlier work.
Where [16] appears, read: male, LVG golden Syrian, po, 30 mg/kg.
The mark [17] stands for this setting: in vivo, predicted from in vitro liver parameters.

In general, solubility refers to the dissolved amount per volume that the medium holds. Lower therefore signals little dissolved substance. `Nc1ccc(/N=N/c2ccccc2)c(N)n1` [Phenazolpyridine, reference compound] showed a solubility in the series “physchem” of 26 µg/mL (≈ 122 µM).

The term Papp denotes the rate of passage across a membrane or cell layer, normalised by area and donor concentration. In “in vitro”, `CNC(=C[N+](=O)[O-])NCCSCc1ccc(CN(C)C)o1` [Ranitidine, reference compound] had a Papp at 0.05 mM of less than 1 ×10⁻⁶ cm/s.

In turn, `CCCSc1ccc2nc(NC(=O)OC)[nH]c2c1` [Albendazole, reference compound] showed a solubility in the series “physchem” of less than 1 µg/mL.

The term AUC(0-inf) denotes total exposure, with the tail of the curve extrapolated. High values mean more exposure, low ones less exposure. In general, Cmax refers to the maximum level reached in the sampled fluid or tissue. Usually Tmax stands for the time at which the peak concentration occurs. What is called half-life is the time needed for the level to fall by half in the phase considered. Read a low half-life as fast loss. In general, Km refers to the concentration of substrate that gives half-maximal velocity. On to `O=C(Nc1ccc([N+](=O)[O-])cc1Cl)c1cc(Cl)ccc1O` [Nc, Niclosamide, reference compound], for which the AUC(0-inf) in the series “in vivo [1]” (iv, 3 mg/kg) amounted to 577 ng·h/mL; in the series “in vivo [1]” (iv, 10 mg/kg) it was 1390 ng·h/mL; in the series “in vivo [1]” (po, 10 mg/kg), 1610 ng·h/mL; in the series “in vivo [2]” (male, LVG golden Syrian, iv, 3 mg/kg) it was 203 ng·h/mL; in “in vivo [2]” (setting [16]), 1890 ng·h/mL. The Cmax is 346 ng/mL in the series “in vivo [1]” (po, 10 mg/kg); 1170 ng/g and 623 ng/mL in “in vivo [2]” (setting [16]). For the same compound, in the series “in vivo [1]” (po, 10 mg/kg), the “dose-normalized AUC0-∞ of Nc” value is 216 (h*ng/mL)/(mg/kg). In addition, the “AUC0-∞ Observed” value in “in vivo [2]” (iv, 3 mg/kg) is 1030 (98) h*ng/g; in the series “in vivo [2]” (po, 30 mg/kg), 5020 (294) h*ng/g. Moreover, the “dose normalized plasma AUC0-∞ of Nc” value in “in vivo [2]” (setting [16]) is listed as 88 (h*ng/mL)/(mg/kg). The Tmax in the series “in vivo [2]” (male, LVG golden Syrian, po, 30 mg/kg, Tmax Observed) was 1 h. The half-life in the series “in vivo [2]” (male, LVG golden Syrian, po, 30 mg/kg, t1/2 Observed) was approximately 1.9 h. Further, the “Liver Vmax” value was 0.0949 mg/s/mg microsomes in series [3] (in vivo (scaled)); 0.1463 mg/s/mg microsomes in series [4] (in vivo (scaled)); 0.0738 mg/s/mg microsomes in series [5] (in vivo (scaled)); 0.07474 mg/s/mg microsomes in series [6]; 0.1152 mg/s/mg microsomes in series [7]; 0.0581 mg/s/mg microsomes in series [8]. Further, the “Gut Vmax” value in series [3] (setting [17]) was 0.0408 mg/s/mg microsomes; in [4] (setting [17]) it was 0.0629 mg/s/mg microsomes; in [5] (setting [17]), 0.0317 mg/s/mg microsomes. In addition, the PAMPA permeability in series [9] is <1 ^b 10^−6 cm/s. Besides, the oral bioavailability in [10] (po) is 5.5%; in series [11], 0.54%. Besides, the volume of distribution entry in series [10] was “less than 0.4 L/kg”. Further, the “plasma Cmax” value in series [12] (500 mg) is 35.7 to 182 ng/mL. Further, in series [12] (2000 mg), the “serum maximal concentration (Cmax), Nc equivalent” value was 250 to 6000 ng/mL. Further, the “median plasma Cmax” value in series [12] is 665 ng/mL. The “Fup (unbound fraction in plasma)” value is given as 0.14% (rodent) ^b in series [13] and 0.16% (human) ^b in series [14]. Also, the plasma protein binding in [13] is on record as more than 99.8%. The Michaelis-Menten constant (Km) with UGT enzymes was 0.09 to 1.67 µM. Moreover, the “UGT-mediated hepatic CL in vitro,app” value with UGT enzymes (mouse) is reported as 0.18-0.21 mL/min/mg microsomes. In series [15], the “oral LD50” value is more than 5000 mg/kg.

(Values after publication PMC10126473 (Frontiers in Pharmacology, 2023).)
